From patent US20260347330A1, “N-METHYL-D-ASPARTATE RECEPTOR (NMDAR) ANTAGONISTS AND USES THEREOF” (Bexson Biomedical, Inc., priority 2022, published 2026)

Target: NMDAR
Test: Homologous binding experiments with MK-801
Conditions: rat forebrain
Description: Rat forebrains from 7-8 week old Sprague-Dawley rats (BioChemed, USA) were homogenized in a buffer containing 10 mM HEPES and 1 mM EDTA (pH 7.4) using a mechanical homogenizer (Janke-Kunkel Ultra-Turrax T25). A 10 mL volume was used per brain for all steps involving suspension of the brain homogenate tissue. The brain homogenate was then centrifuged (15 minutes at 20,000 RPM and 4 ° C). The supernatant was carefully poured off and the pellet was resuspended in fresh 10 mM HEPES and 1 mM EDTA containing buffer. This process was repeated 5 times. Following the 5th centrifugation, the buffer was replaced with a buffer containing 10 mM HEPES (pH 7.4). […] Protein concentration of the homogenate was determined by utilizing the Bradford method using Coomassie protein assay reagent (Sigma, USA) with Bovine Serum albumin (Sigma, USA) as a standard.
At the time of the experiment, the homogenate was diluted to a final concentration of […] in 10 mM HEPES buffer, 1 mM glutamate, and 0.1 mM glycine (pH 7.4) and combined with 1 nM (+)-[3H]-MK-801 (Perkin Elmer NET972250UC), unlabeled competitor compounds at varying concentrations, or 30 uM MK-801 to determine non-specific binding, in a total volume of 1 mL in a 96 well plate. […] IC50 value estimates were determined in GraphPad Prism 9.3.1 using non-linear regression (single site fit) with log-concentration plotted against percent specific binding. […]

SMILES: C[C@]12N[C@H](Cc3ccccc31)c1ccccc12 [MK-801]
- Kd: 1.67 nM
